Data taken from patent US20080299076A1, “Compunds and compositions that cause non-apoptotic cell death and uses thereof” (priority 2006, published 2008).

Legend:
A431NS = experiment: Response of tumor cell lines to erastin (dose-response); format: cell-based; conditions: Epidermoid carcinoma
Experimental: (§1) Given that oncogenic RAS activates at least four downstream pathways, analysis was performed to identify which downstream effects were necessary for erastin sensitivity. In certain embodiments, the invention provides that erastin inhibits growth and kills genuine tumor cells with RAS mutations. In other embodiments, the invention provides measures of the dose-response of 29 tumor cell lines to erastin, wherein there is at least 50% inhibition of viability in 18 of the cell lines (Table 4). Numerous sarcoma-derived tumor cell lines were sensitive to erastin, consistent with the fact that erastin was discovered in an engineered tumor cell line created from human fibroblasts.

A549 = experiment: as above; format: cell-based; conditions: A549, lung carcinoma
Experimental: as §1

C-33A = experiment: as above; format: cell-based
Experimental: as §1

EWS502 = experiment: as above; format: cell-based
Experimental: as §1

HCT 116 = experiment: as above; format: cell-based; conditions: HCT 116, colorectal carcinoma
Experimental: as §1

HL-60 = experiment: as above; format: cell-based
Experimental: as §1

HOS = experiment: as above; format: cell-based
Experimental: as §1

HeLa = experiment: as above; format: cell-based
Experimental: as §1

Hs 925.T = experiment: as above; format: cell-based
Experimental: as §1

Hs51.T = experiment: as above; format: cell-based
Experimental: as §1

LNCaP = experiment: as above; format: cell-based
Experimental: as §1

MES-SA = experiment: as above; format: cell-based
Experimental: as §1

MX2 = experiment: as above; format: cell-based
Experimental: as §1

SJSA-1 = experiment: as above; format: cell-based
Experimental: as §1

SK-ES-1 = experiment: as above; format: cell-based
Experimental: as §1

SK-LMS-1 = experiment: as above; format: cell-based
Experimental: as §1

SK-N-MC = experiment: as above; format: cell-based
Experimental: as §1

SK-UT = experiment: as above; format: cell-based
Experimental: as §1

SVR = experiment: as above; format: cell-based
Experimental: as §1

SW872 = experiment: as above; format: cell-based
Experimental: as §1

SW982 = experiment: as above; format: cell-based; conditions: SW982, synovial sarcoma
Experimental: as §1

TC32 = experiment: as above; format: cell-based
Experimental: as §1

TC71 = experiment: as above; format: cell-based
Experimental: as §1

U-2 OS = experiment: as above; format: cell-based
Experimental: as §1

U973 = experiment: as above; format: cell-based
Experimental: as §1

[1] = Stability in human liver microsomes; format: in vitro ADME; conditions: after 1 hr
Experimental: The stability of erastin in mouse and human liver microsomes and in mouse and human plasma was assessed. In both human and mouse liver microsomes, after 1 hr, ˜30% of erastin was converted to its primary metabolite (the O-de-ethylated product). In both human and mouse plasma, only ˜10% of erastin was lost after five hours. Thus, erastin has sufficient metabolic and plasma stability to be tested in vivo in mice.

tumor cell lines = experiment: Dose-response of panel of tumor cell lines to erastin; format: cell-based
Experimental: In certain aspects, the invention provides that erastin is lethal to tumor cells with activating mutations in proteins downstream of RAS proteins. Dose-response of 30 tumor cell lines to erastin was measured, and at least 50% inhibition of cell viability in 19 of the 30 tumor cell lines was formed. Numerous sarcoma-derived tumor cell lines were sensitive to erastin, consistent with the fact that erastin was discovered in an engineered tumor cell line created from human fibroblasts. Non-limiting examples include, HT1080 fibrosarcoma cells. HT1080 fibrosarcoma cells, which have a known activating mutation in NRAS, (Plattner, R. et al. Differential contribution of the ERK and JNK mitogen-activated protein kinase cascades to Ras transformation of HT1080 fibrosarcoma and DLD-1 colon carcinoma cells. Oncogene. 18: 1807-17 (1999)), were quite sensitive to erastin. In order to determine whether RAS-activated signaling was modulated in cell lines that respond to erastin, the phosphorylation status of ERK1/2 in 12 sarcoma cell lines with a range of sensitivities to erastin was evaluated. In certain aspects, the invention provides a non-zero correlation, such as for example, a correlation coefficient of 0.41, between ERK1/2 phosphorylation status and erastin sensitivity in these cell lines. […]

Question: With `CCOc1ccccc1-n1c(C(C)N2CCN(C(=O)COc3ccc(Cl)cc3)CC2)nc2ccccc2c1=O` (stereo not shown) [erastin, 2-(1-{4-[2-(4-Chloro-phenoxy)-acetyl]-piperazin-1-yl}-ethyl)-3-(2-ethoxy-phenyl)-3H-quinazolin-4-one] as the compound, how does the Max % killing (A431NS) read?
Answer: The Max % killing was 0%.

Question: What about the Max % killing (A549) of the same compound?
Answer: Its Max % killing is 0%.

Question: And the EC50 (C-33A; Homo sapiens)?
Answer: The EC50 was 0.6 µM.

Question: And the Max % killing (C-33A; cervical carcinoma)?
Answer: Its Max % killing is 21%.

Question: What about the EC50 (EWS502; EWS502) of the same compound?
Answer: Its EC50 is 10 µM.

Question: And the “Erastin Sensitivity (maximum percent killing, as fraction)” value (EWS502; EWS502)?
Answer: The value was 0.42.

Question: And the Max % killing (EWS502; EWS502, Ewing sarcoma)?
Answer: Its Max % killing is 42%.

Question: And the Max % killing (HCT 116)?
Answer: The Max % killing was 0%.

Question: What about the “Erastin Sensitivity (maximum percent killing, as fraction)” value (HL-60; HL 60) of the same compound?
Answer: The value was 0.00.

Question: And the Max % killing (HL-60; HL-60, acute promyelocytic leukemia)?
Answer: Its Max % killing is 0%.

Question: And the EC50 (HOS; Homo sapiens)?
Answer: Its EC50 is 17 µM.

Question: And the Max % killing (HOS; Osteosarcoma)?
Answer: The Max % killing was 100%.

Question: And the Max % killing (HeLa; Cervical carcinoma)?
Answer: The Max % killing was 94%.

Question: And the EC50 (HeLa; Homo sapiens)?
Answer: Its EC50 is 0.6 µM.

Question: What about the EC50 (Hs 925.T) of the same compound?
Answer: The EC50 was 17 µM.

Question: What about the Max % killing (Hs 925.T; Pagetoid sarcoma) of the same compound?
Answer: Its Max % killing is 83%.

Question: And the EC50 (Hs51.T)?
Answer: Its EC50 is 12 µM.

Question: And the Max % killing (Hs51.T; Spindle cell sarcoma)?
Answer: Its Max % killing is 88%.

Question: What about the EC50 (LNCaP; Homo sapiens) of the same compound?
Answer: Its EC50 is 6 µM.

Question: What about the Max % killing (LNCaP; prostate carcinoma) of the same compound?
Answer: Its Max % killing is 32%.

Question: And the EC50 (MES-SA; Homo sapiens)?
Answer: Its EC50 is 3 µM.

Question: And the Max % killing (MES-SA; Uterine sarcoma)?
Answer: Its Max % killing is 100%.

Question: What about the EC50 (MX2; MX2) of the same compound?
Answer: Its EC50 is 18 µM.

Question: And the Max % killing (MX2; MX2, Uterine Sarcoma)?
Answer: The Max % killing was 71%.

Question: What about the EC50 (SJSA-1; Homo sapiens, SJSA-1) of the same compound?
Answer: The EC50 was 12 µM.

Question: And the Max % killing (SJSA-1; SJSA-1, Osteosarcoma)?
Answer: Its Max % killing is 100%.

Question: And the EC50 (SK-ES-1; Homo sapiens, SK-ES1, SK-ES-1)?
Answer: Its EC50 is 7 µM.

Question: And the Max % killing (SK-ES-1; SK-ES-1, Ewing sarcoma)?
Answer: Its Max % killing is 96%.

Question: What about the “Erastin Sensitivity (maximum percent killing, as fraction)” value (SK-ES-1; SKES1) of the same compound?
Answer: The value was 0.96.

Question: And the EC50 (SK-LMS-1; Homo sapiens, SK-LMS-1)?
Answer: Its EC50 is 6 µM.

Question: And the Max % killing (SK-LMS-1; SK-LMS-1, Leimyosarcoma, vulva)?
Answer: The Max % killing was 100%.

Question: And the EC50 (SK-N-MC; Homo sapiens, SK-N-MC)?
Answer: The EC50 was 10 µM.

Question: And the “Erastin Sensitivity (maximum percent killing, as fraction)” value (SK-N-MC; SK N MC)?
Answer: Its value is 0.95.

Question: And the Max % killing (SK-N-MC; SK-N-MC, Neuroepithelioma)?
Answer: Its Max % killing is 95%.

Question: What about the EC50 (SK-UT) of the same compound?
Answer: Its EC50 is 4 µM.

Question: And the Max % killing (SK-UT; Uterine, mixed mesodermal tumor)?
Answer: Its Max % killing is 73%.

Question: And the EC50 (SVR; Mus musculus)?
Answer: The EC50 was 2.5 µM.

Question: And the Max % killing (SVR; Pancreatic carcinoma)?
Answer: The Max % killing was 20%.

Question: What about the “Erastin Sensitivity (maximum percent killing, as fraction)” value (SW872; SW 872) of the same compound?
Answer: The value was 0.00.

Question: And the Max % killing (SW872; SW872, Liposarcoma)?
Answer: The Max % killing was 0%.

Question: What about the Max % killing (SW982) of the same compound?
Answer: Its Max % killing is 0%.

Question: And the EC50 (TC32; Homo sapiens, TC-32, TC32)?
Answer: Its EC50 is 8 µM.

Question: And the “Erastin Sensitivity (maximum percent killing, as fraction)” value (TC32; TC 32)?
Answer: Its value is 0.88.

Question: What about the Max % killing (TC32; TC32, Peripheral neuroepithelioma) of the same compound?
Answer: The Max % killing was 88%.

Question: And the “Erastin Sensitivity (maximum percent killing, as fraction)” value (TC71; TC 71)?
Answer: The value was 0.92.

Question: And the Max % killing (TC71; TC71, Ewing sarcoma)?
Answer: Its Max % killing is 92%.

Question: And the EC50 (TC71; TC-71, TC71)?
Answer: Its EC50 is 10 µM.

Question: And the EC50 (U-2 OS; Homo sapiens, U2OS)?
Answer: Its EC50 is 6 µM.

Question: What about the Max % killing (U-2 OS; Osteosarcoma) of the same compound?
Answer: Its Max % killing is 96%.

Question: And the “Erastin Sensitivity (maximum percent killing, as fraction)” value (U973; U937)?
Answer: Its value is 0.73.

Question: And the Max % killing (U973; U973, Acute myelogenous leukemia)?
Answer: Its Max % killing is 73%.

Question: What about the EC50 (U973; U-973, U973) of the same compound?
Answer: The EC50 was 10 µM.

Question: What about the “converted to primary metabolite (O-de-ethylated product)” value [1] of the same compound?
Answer: Its value is roughly 30%.

Question: And the “number of cell lines with at least 50% inhibition of viability” value (tumor cell lines; of 29 tumor cell lines)?
Answer: The value was 18.

Question: What about the “number of cell lines with at least 50% inhibition of cell viability” value (tumor cell lines; of 30 tumor cell lines) of the same compound?
Answer: Its value is 19.
